The values that follow come from ChEMBL document CHEMBL3046267, “Induction of Phytoalexin Formation in Suspension-cultured Rice Cells byN-Acetyl-chitooligosaccharides” (1993).

Structures are written as SMILES. Calls of active or inactive are those of the source. The rule behind the calls is not given here.

What all share (type): functional
The subject of one experiment is Pyricularia oryzae. Kind of experiment: Antifungal activity against Magnaporthe oryzae assessed as inhibition of germ tube growth at 1 to 5 ug/ml relative to control.
Experiment [1] relates to Oryza sativa. As to the kind of experiment: Induction of phytoalexin formation in suspension-cultured Oryza sativa (rice) cells assessed as accumulation of intracellular momilactone B at 10 ug/ml after 48 hr by GC/GC-MS analysis.
The test system of experiment [2] is Oryza sativa. As to the kind of experiment: Induction of phytoalexin formation in suspension-cultured Oryza sativa (rice) cells assessed as accumulation of momilactone A in culture medium at 0.7 x 10^-9 to 0.7 x 10^-6 M after 24 hr by GC/GC-MS analysis.
For experiment [3], the system named is Oryza sativa. Kind of experiment: Induction of phytoalexin formation in suspension-cultured Oryza sativa (rice) cells assessed as accumulation of momilactone A in culture medium at 0.7 x 10^-9 to 0.7 x 10^-6 M after 48 hr by GC/GC-MS analysis.
Experiment [4] concerns Oryza sativa. As to the kind of experiment: Induction of phytoalexin formation in suspension-cultured Oryza sativa (rice) cells assessed as accumulation of momilactone A in culture medium at 0.7 x 10^-9 to 0.7 x 10^-6 M after 72 hr by GC/GC-MS analysis.
In experiment [5] the test system is Oryza sativa. As to the kind of experiment: Induction of phytoalexin formation in suspension-cultured Oryza sativa (rice) cells assessed as accumulation of intracellular momilactone A at 0.7 x 10^-9 to 0.7 x 10^-6 M after 24 hr by GC/GC-MS analysis.
For experiment [6], the system named is Oryza sativa. As to the kind of experiment: Induction of phytoalexin formation in suspension-cultured Oryza sativa (rice) cells assessed as accumulation of intracellular momilactone A at 0.7 x 10^-9 to 0.7 x 10^-6 M after 48 hr by GC/GC-MS analysis.
Experiment [7] has as its system Oryza sativa. Kind of experiment: Induction of phytoalexin formation in suspension-cultured Oryza sativa (rice) cells assessed as accumulation of intracellular momilactone A at 0.7 x 10^-9 to 0.7 x 10^-6 M after 72 hr by GC/GC-MS analysis.

Consider `C=C[C@]1(C)CC[C@@H]2C(=C[C@H]3OC(=O)[C@@]4(C)C(=O)CC[C@@]2(C)[C@@H]34)C1` [MOMILACTONE A], for which the “growth inhibition (GI)” value in the experiment on Pyricularia oryzae worked out at 50%.

With `C=C[C@]1(C)CC[C@@H]2C(=C[C@H]3OC(=O)[C@]4(C)[C@H]3[C@]23CC[C@@]4(O)OC3)C1` [MOMILACTONE B], the “growth inhibition (GI)” value in the experiment on Pyricularia oryzae was determined as 50%.

As for `CC(=O)N[C@H]1[C@H](O[C@@H]([C@H](O)[C@H](C=O)NC(C)=O)[C@H](O)CO)O[C@H](CO)[C@@H](O[C@@H]2O[C@H](CO)[C@@H](O[C@@H]3O[C@H](CO)[C@@H](O[C@@H]4O[C@H](CO)[C@@H](O[C@@H]5O[C@H](CO)[C@@H](O[C@@H]6O[C@H](CO)[C@@H](O)[C@H](O)[C@H]6NC(C)=O)[C@H](O)[C@H]5NC(C)=O)[C@H](O)[C@H]4NC(C)=O)[C@H](O)[C@H]3NC(C)=O)[C@H](O)[C@H]2NC(C)=O)[C@@H]1O` [N-ACETYLCHITOHEPTAOSE], the outcome with Oryza sativa [1] was Active. Besides, the Activity turned out to be 24 µg/g with Oryza sativa [2]; 161 µg/g in the experiment on Oryza sativa [3]; 149 µg/g in the experiment on Oryza sativa [4]; 16 µg/g with Oryza sativa [5]; 41 µg/g in the experiment on Oryza sativa [6]; 56 µg/g in the experiment with Oryza sativa [7].
